From PMC4102788, “Linking off-target kinase pharmacology to the differential cellular effects observed among PARP inhibitors” (Oncotarget, 2014)
pIC50, pKi: −log10 of the molar value. Entries after “also recorded” stand apart in the source; their conditions may differ.

How the values were obtained:
human PIM1 kinase = target: T1, human PIM1 kinase (Homo sapiens, UniProt P11309); test: Human Pim1 kinase in vitro inhibition assay (Cerep, LANCE/FRET); assay type: biochemical; conditions: human recombinant enzyme, 30 µM ATP
T1 construct: purchased Cerep (CRO that ran the assay) 2919 (745-P1); host or cells: insect cells
T1 sequence (P11309 whole entry): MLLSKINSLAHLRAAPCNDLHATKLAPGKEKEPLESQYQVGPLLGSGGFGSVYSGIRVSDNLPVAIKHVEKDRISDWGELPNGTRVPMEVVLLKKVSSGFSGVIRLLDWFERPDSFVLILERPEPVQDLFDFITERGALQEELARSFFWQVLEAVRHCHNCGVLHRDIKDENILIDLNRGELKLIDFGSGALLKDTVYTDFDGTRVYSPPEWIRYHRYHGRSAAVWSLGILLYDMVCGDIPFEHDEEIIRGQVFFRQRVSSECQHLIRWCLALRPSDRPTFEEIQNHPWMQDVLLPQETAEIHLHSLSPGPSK
Description: Human Pim1 and Pim2 kinase in vitro inhibition assays
Evaluation of the effects of compounds on the activity of the human Pim1 and Pim2 kinases were quantified by measuring the phosphorylation of the substrate Ulight-
CREBtide ([sequence]) using either Pim1 or Pim2 human recombinant enzymes expressed in insect cells and the LANCE® detection method 18,19.
The test compound, reference compound or water (control) are mixed with either Pim1 (4.08 ng) or Pim2 (6.36 ng) enzymes in a buffer containing 40 mM Hepes/Tris (pH 7.4), 0.8 mM EGTA/Tris, 8 mM MgCl2, 1.6 mM DTT and 0.008% Tween 20.
Thereafter, the reaction is initiated by adding 25 nM of the substrate Ulight-CREBtide
([sequence]) and ATP (30 µM for Pim1 and 3 µM for Pim2), and the mixture is incubated for 60 min at room temperature. […] After 60 more min, the fluorescence transfer is measured at λex=337 nm, λem=620 nm and λem=665 nm using a microplate reader (Envision, Perkin Elmer).

STAT3 phosphorilation = test system: STAT3 phosphorilation; design: method as in PMID 22678161; conditions: at 5 µM; cited from earlier work
[1] = 50 mg single daily dose; cited from earlier work
human CDK9 kinase = target: T2, human CDK9 kinase (Homo sapiens, UniProt P50750); test: Human CDK9 kinase in vitro inhibition assay (Cerep, LANCE); assay type: biochemical; conditions: human recombinant enzyme, 10 µM ATP
T2 construct: purchased Cerep (CRO that ran the assay) 2912 (781-cdk9); host or cells: Sf9 cells
T2 sequence (P50750 whole entry): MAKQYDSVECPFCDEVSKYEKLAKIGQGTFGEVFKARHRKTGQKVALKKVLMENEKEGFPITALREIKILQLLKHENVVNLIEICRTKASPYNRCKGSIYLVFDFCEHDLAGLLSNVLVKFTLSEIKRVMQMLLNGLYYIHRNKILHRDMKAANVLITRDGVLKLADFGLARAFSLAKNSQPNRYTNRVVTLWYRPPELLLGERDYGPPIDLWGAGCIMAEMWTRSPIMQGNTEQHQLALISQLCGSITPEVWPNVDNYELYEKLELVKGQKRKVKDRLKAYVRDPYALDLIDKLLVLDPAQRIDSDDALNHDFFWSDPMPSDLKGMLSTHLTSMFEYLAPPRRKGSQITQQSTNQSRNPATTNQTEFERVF
T2 sequence (O60563 whole entry partner): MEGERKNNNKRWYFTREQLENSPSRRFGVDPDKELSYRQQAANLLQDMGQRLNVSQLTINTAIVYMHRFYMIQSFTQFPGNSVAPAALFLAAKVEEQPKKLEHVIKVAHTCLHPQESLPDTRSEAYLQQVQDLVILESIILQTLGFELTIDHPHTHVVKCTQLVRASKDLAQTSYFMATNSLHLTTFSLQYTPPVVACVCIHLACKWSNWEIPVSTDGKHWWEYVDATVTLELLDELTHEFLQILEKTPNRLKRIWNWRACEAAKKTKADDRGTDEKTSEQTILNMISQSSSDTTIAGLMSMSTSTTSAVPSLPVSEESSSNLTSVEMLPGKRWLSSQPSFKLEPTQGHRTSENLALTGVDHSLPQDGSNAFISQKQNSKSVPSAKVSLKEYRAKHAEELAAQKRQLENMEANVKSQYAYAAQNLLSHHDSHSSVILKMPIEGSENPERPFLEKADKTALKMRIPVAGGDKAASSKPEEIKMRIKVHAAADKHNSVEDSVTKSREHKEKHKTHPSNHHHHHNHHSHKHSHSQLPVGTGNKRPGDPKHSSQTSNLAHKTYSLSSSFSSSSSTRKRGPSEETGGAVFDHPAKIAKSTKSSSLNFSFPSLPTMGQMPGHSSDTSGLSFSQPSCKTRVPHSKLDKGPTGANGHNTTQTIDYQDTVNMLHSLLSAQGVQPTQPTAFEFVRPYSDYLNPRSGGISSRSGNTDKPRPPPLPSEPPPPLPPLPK
Excerpt: (§1) Rucaparib, veliparib and olaparib were purchased from Selleckchem. Kinase in vitro assays were perfomed at Cerep (www.cerep.fr) by measuring the phosphorylation of appropriate peptide substrates by human recombinant enzymes and using FRET as a detection method (a detailed description of each kinase assay is available in online supplementary data).
Human CDK9 kinase in vitro inhibition assay
All details for the CDK9 in vitro assay can be consulted in the Cerep Catalogue available online under references 2912 (781-cdk9): http://www.cerep.fr/cerep/users/pages/catalog/Affiche_CondExp_Test.asp?test=2912 Evaluation of the effects of compounds on the activity of the human CDK9 quantified by measuring the phosphorylation of the substrate Ulight- […]
mixture is incubated for 90 min at room temperature. […] After 60 more min, the fluorescence transfer is measured at λex=337 nm, λem=620 nm and λem=665 nm using a microplate reader (Envision, Perkin Elmer). The enzyme activity is determined by dividing the signal measured at λem=665 nm by that measured at λem=620 nm (ratio). The results are expressed as a percent inhibition of the control enzyme activity. The standard inhibitory reference compound is staurosporine, which is tested in each experiment at several concentrations to obtain an inhibition curve from which its IC50 value is calculated. […]

human DYRK1A kinase = target: T3, human DYRK1A kinase (Homo sapiens, UniProt Q13627); test: Human DYRK1A kinase in vitro inhibition assay (Cerep, LANCE); assay type: biochemical
T3 construct: purchased Cerep (CRO that ran the assay) 2781 (781-dyrk1a)
Description: Evaluation of the effects of compounds on the activity of the human DYRK1a
[sequence]-amide (MBP) using a human recombinant enzyme and the
mixture is incubated for 30 min at room temperature. For control basal measurements,

human CDC2/CDK1 = target: T4, human CDC2/CDK1 (Homo sapiens, UniProt P06493); test: Human CDK1 kinase in vitro inhibition assay (Cerep, LANCE); assay type: biochemical
T4 construct: purchased Cerep (CRO that ran the assay) 2875 (781-cdc2); host or cells: insect cells
T4 sequence (P06493 whole entry): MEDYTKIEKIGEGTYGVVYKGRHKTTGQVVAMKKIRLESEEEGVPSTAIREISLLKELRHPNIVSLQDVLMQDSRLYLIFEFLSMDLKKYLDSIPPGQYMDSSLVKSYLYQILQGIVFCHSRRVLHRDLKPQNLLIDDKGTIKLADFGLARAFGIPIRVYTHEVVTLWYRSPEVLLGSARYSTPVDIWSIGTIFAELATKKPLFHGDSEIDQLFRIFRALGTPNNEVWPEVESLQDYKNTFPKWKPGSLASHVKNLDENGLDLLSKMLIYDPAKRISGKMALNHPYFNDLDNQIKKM
T4 sequence (P14635 whole entry partner): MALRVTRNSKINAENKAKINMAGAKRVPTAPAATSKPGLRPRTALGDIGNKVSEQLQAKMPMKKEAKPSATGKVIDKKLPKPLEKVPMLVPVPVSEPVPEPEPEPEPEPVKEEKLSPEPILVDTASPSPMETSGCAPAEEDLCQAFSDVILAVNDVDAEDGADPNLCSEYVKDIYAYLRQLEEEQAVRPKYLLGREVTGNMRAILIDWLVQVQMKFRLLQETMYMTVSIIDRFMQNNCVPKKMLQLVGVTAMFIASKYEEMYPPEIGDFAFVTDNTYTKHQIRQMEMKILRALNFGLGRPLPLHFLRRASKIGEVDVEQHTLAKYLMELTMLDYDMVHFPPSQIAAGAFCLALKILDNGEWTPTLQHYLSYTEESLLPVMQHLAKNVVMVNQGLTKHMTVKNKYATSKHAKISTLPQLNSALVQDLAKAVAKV
Excerpt: All details for the CDC2/CDK1 in vitro assay can be consulted in the Cerep
Catalogue available online under references 2875 (781-cdc2):
http://www.cerep.fr/cerep/users/pages/catalog/Affiche_CondExp_Test.asp?test=2875
CDC2/CDK1 quantified by measuring the phosphorylation of
the substrate Ulight-[sequence]-amide (MBP) using a human
recombinant enzyme expressed in insect cells and the LANCE® detection method.
The test compound, reference compound or water (control) are mixed with the enzyme (2.28 ng) in a buffer containing 40 mM Hepes/Tris(pH 7.4), 0.8 mM EGTA/Tris, 8 mM MgCl2, 1.6 mM DTT and 0.008% Tween 20. Thereafter, the reaction is initiated by adding 100 nM of the
substrate Ulight-[sequence]-amide (MBP) and 10 µM ATP, and the
mixture is incubated for 15 min at room temperature. […] After 60 more min, the fluorescence transfer is
The IC50 values (concentration causing a half-maximal inhibition of control specific activity) and Hill coefficients (nH) were determined by non-linear regression analysis of the inhibition curves generated with mean replicate values using Hill equation curve fitting (Y = D + [(A – D)/(1 + (C/C50)nH)], where Y = specific activity, D = minimum specific activity, A = maximum specific activity, C = compound concentration, C50 = IC50, and nH = slope factor).

16 protein kinases = test: Focused in vitro kinase screening across the panel of 16 protein kinases; assay type: biochemical, human; conditions: panel of 16 kinases
Excerpt: From these kinases, we selected the 11 that were available for screening at Cerep (www.cerep.fr). The selection included members of three different kinase groups distantly related by sequence (all having less than 20% sequence identity with PIM1), namely, CAMK (PIM2, STK17A), CMGC (DYRK1A, CDK9, HIPK2, CK2, and CDC7) and AGC (AKT3, PRKCG, PRKCI, and PKA). To this list, we added also two kinases belonging to the TK group that have been identified as biomarkers of PARP drug sensitivity and shared ligands with PIM1, namely, ABL and ALK. […] In the end, a total of 16 protein kinases were selected for a focused in vitro screening of PARP inhibitors.
as §1

S6K1 kinase = target: S6K1 kinase; design: method as in PMID 24072592; conditions: cited from earlier work
PIM1 kinase = target: PIM1 kinase; design: method as in PMID 23025350; conditions: cited from earlier work
PARP-1 = target: PARP-1; design: method as in PMID 21948594, PMID 21336281; conditions: ChEMBL; cited from earlier work

In the case of `C[C@]1(c2nc3c(C(N)=O)cccc3[nH]2)CCCN1` [veliparib], the pIC50 (human PIM1 kinase) is given as 4.77, the “effect on STAT3 phosphorilation” value (STAT3 phosphorilation) is given as “do not affect the phosphorilation state of STAT3” and the “highest peak plasma concentration” value [1] is given as “around 1 µM”. For the same compound, the pIC50 (human CDK9 kinase) was 5.09, the “inhibition of DYRK1A (in words)” value (human DYRK1A kinase) was “not inhibited” and the “inhibition of CDK1 (in words)” value (human CDC2/CDK1) was “not inhibited”.

In the case of `O=C(c1cc(Cc2n[nH]c(=O)c3ccccc23)ccc1F)N1CCN(C(=O)C2CC2)CC1` [olaparib], the “affinity for the 16 protein kinases tested” value (16 protein kinases) is listed as “does not inhibit any; also recorded: no relevant affinities”, the “effect on STAT3 phosphorilation” value (STAT3 phosphorilation) is listed as “do not affect the phosphorilation state of STAT3” and the “inhibition of DYRK1A (in words)” value (human DYRK1A kinase) is listed as “not inhibited”. For the same compound, the “inhibition of CDK1 (in words)” value (human CDC2/CDK1) was “not inhibited”.

For `NC(=O)c1cccc2[nH]c(-c3ccc(O)cc3)nc12` [Nu1085], the pIC50 (S6K1 kinase) is given as 6.25.

For `CN(C)CC(=O)Nc1ccc2[nH]c(=O)c3ccccc3c2c1` [PJ34], the pIC50 (PIM1 kinase) is given as 5.43.

For `O=C1CCCN1Cc1ccc2c(c1)[nH]c(=O)c1cccn12` [CHEMBL539474], the pKi (PARP-1) is listed as 6.16.
